What is called EC50 is the concentration at which the effect is half-maximal. In general, Emax refers to the size of the effect at its maximum, as opposed to the concentration needed.

This passage reports EC50 and Emax results from patent US20240208992A1, “MACROCYCLES AS CFTR MODULATORS” (Idorsia Pharmaceuticals Ltd, priority 2021, published 2024).

The assay concerns the target human F508del-CFTR (Homo sapiens, UniProt P13569, DEL508-508). Kind of assay: F508del-CFTR cell surface expression (corrector activity), DiscoveRx ß-galactosidase complementation chemiluminescence assay in recombinant U2OS cell line.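 As to all read-outs here: U2OS cells co-expressing ProLink-tagged F508del-CFTR and a membrane-anchored enzyme acceptor, where more surface CFTR restores β-galactosidase activity measured by chemiluminescence.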 To be noted: for EC50: EC50, F508del-CFTR cell surface expression, U2OS cells, 16h compound incubation, geomean values; for Emax: U2OS, in relation to Emax of corrector lumacaftor (=100%), arithmetic mean values.

Chain of human F508del-CFTR (P13569 with tags, fused parts or gaps DEL508-508): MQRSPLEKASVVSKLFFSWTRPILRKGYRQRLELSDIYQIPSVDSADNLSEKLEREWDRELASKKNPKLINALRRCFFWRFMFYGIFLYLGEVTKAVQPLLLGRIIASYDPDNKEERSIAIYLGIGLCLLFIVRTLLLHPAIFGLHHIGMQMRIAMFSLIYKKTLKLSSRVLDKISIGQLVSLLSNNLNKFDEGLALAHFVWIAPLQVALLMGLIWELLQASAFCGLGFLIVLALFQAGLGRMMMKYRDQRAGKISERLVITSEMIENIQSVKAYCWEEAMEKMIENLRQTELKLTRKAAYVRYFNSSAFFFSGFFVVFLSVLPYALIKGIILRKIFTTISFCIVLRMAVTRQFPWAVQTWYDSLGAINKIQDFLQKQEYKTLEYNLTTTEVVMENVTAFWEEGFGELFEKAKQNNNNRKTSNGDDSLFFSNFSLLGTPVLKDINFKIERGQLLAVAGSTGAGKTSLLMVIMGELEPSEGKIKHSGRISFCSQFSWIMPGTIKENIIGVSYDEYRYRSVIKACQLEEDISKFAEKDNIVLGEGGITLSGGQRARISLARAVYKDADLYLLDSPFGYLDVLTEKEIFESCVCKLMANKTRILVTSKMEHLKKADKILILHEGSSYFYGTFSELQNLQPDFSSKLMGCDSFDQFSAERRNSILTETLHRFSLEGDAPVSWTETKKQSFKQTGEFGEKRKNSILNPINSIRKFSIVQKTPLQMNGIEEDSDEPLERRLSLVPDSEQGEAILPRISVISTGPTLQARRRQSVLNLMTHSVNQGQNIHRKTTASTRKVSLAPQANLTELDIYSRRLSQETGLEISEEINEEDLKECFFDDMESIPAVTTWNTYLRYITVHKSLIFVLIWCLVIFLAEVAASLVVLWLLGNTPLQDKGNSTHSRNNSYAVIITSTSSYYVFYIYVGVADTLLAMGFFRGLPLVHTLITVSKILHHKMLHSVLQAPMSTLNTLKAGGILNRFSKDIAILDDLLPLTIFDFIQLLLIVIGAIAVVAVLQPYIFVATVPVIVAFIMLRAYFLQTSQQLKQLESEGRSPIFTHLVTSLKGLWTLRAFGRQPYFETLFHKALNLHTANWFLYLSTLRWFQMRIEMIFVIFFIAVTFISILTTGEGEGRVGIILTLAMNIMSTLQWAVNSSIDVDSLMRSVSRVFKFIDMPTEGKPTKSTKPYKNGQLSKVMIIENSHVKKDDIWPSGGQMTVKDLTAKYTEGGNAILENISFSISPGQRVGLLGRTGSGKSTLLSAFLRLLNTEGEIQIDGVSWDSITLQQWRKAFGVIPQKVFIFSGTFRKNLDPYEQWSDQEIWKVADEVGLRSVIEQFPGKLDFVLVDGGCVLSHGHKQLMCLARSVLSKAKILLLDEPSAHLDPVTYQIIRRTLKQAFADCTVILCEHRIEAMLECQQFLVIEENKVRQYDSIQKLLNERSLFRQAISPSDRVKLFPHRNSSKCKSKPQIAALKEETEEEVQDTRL

On to `CC(C)C[C@H]1C(=O)N(C)CC(=O)N[C@H](Cc2ccccc2)COc2ccc3c(c2C(=O)N[C@H](C(=O)NCCc2ccc4c(c2)OCO4)CC(=O)N1C)OC(F)(F)O3` [Example 408, (8R,14S,18S)-N-(2-(benzo[d][1,3]dioxol-5-yl)ethyl)-8-benzyl-2,2-difluoro-14-isobutyl-12,15-dimethyl-10,13,16,20-tetraoxo-7,8,9,10,11,12,13,14,15,16,17,18,19,20-tetradecahydro-[1,3]dioxolo[4′,5′:5,6]benzo[1,2-p][1]oxa[4,7,10,14]tetraazacycloheptadecine-18-carboxamide], for which the half-maximal effective concentration (EC50) came to 241 nM and the maximum response (Emax) came to 134%.

Take `COc1cccc(CCNC(=O)[C@@H]2CC(=O)N(C)[C@@H](CC(C)C)C(=O)N(C)CC(=O)N[C@H](Cc3ccccc3)COc3ccc4c(c3C(=O)N2)OC(F)(F)O4)c1` [Example 409, (8R,14S,18S)-8-benzyl-2,2-difluoro-14-isobutyl-N-(3-methoxyphenethyl)-12,15-dimethyl-10,13,16,20-tetraoxo-7,8,9,10,11,12,13,14,15,16,17,18,19,20-tetradecahydro-[1,3]dioxolo[4′,5′:5,6]benzo[1,2-p][1]oxa[4,7,10,14]tetraazacycloheptadecine-18-carboxamide]: the EC50 worked out at 214 nM and the Emax worked out at 144%.

Consider `Cc1cc(CCNC(=O)[C@@H]2CC(=O)N(C)[C@@H](CC(C)C)C(=O)N(CCC3CCCCC3)CC(=O)N[C@H](Cc3ccccc3)COc3ccc4nc(C)oc4c3C(=O)N2)on1` [Example 410, (8R,14S,18S)-8-benzyl-12-(2-cyclohexylethyl)-14-isobutyl-2,15-dimethyl-N-(2-(3-methylisoxazol-5-yl)ethyl)-10,13,16,20-tetraoxo-7,8,9,10,11,12,13,14,15,16,17,18,19,20-tetradecahydrooxazolo[4′,5′:5,6]benzo[1,2-p][1]oxa[4,7,10,14]tetraazacycloheptadecine-18-carboxamide], for which the 50% effective concentration (EC50) came out at 129 nM and the Emax turned out to be 269%.

As to `Cc1cc(CCNC(=O)[C@@H]2CC(=O)N(C)[C@@H](CC(C)C)C(=O)N(CCC3CCCCC3)CC(=O)N[C@H](Cc3ccccc3)COc3cnc4c(F)cccc4c3C(=O)N2)on1` [Example 411, (3S,7S,13R)-13-benzyl-9-(2-cyclohexylethyl)-18-fluoro-7-isobutyl-6-methyl-N-(2-(3-methylisoxazol-5-yl)ethyl)-1,5,8,11-tetraoxo-1,2,3,4,5,6,7,8,9,10,11,12,13,14-tetradecahydro-[1]oxa[4,7,10,14]tetraazacycloheptadecino[17,16-c]quinoline-3-carboxamide], the EC50 was found to be 138 nM and the maximum response (Emax) amounted to 250%.

`COc1cccc(CCNC(=O)[C@@H]2CC(=O)N(C)[C@@H](CC(C)C)C(=O)N3CCOC[C@@H]3C(=O)N[C@H](Cc3ccccc3)COc3cnc4ccccc4c3C(=O)N2)c1` [Example 412, (9S,13S,19aR,22R)-22-benzyl-13-isobutyl-N-(3-methoxyphenethyl)-12-methyl-7,11,14,20-tetraoxo-7,8,9,10,11,12,13,14,16,17,19,19a,20,21,22,23-hexadecahydro-[1,4]oxazino[3′,4′:6,7][1]oxa[4,7,10,14]tetraazacycloheptadecino[17,16-c]quinoline-9-carboxamide]: the concentration for a half-maximal effect (EC50) amounted to 377 nM and the maximum response (Emax) amounted to 291%.

On to `COc1cccc(CCNC(=O)[C@@H]2CC(=O)N(C)[C@@H](CC(C)C)C(=O)N3CCOC[C@H]3C(=O)N[C@H](Cc3ccccc3)COc3cnc4ccccc4c3C(=O)N2)c1` [Example 413, (9S,13S,19aS,22R)-22-benzyl-13-isobutyl-N-(3-methoxyphenethyl)-12-methyl-7,11,14,20-tetraoxo-7,8,9,10,11,12,13,14,16,17,19,19a,20,21,22,23-hexadecahydro-[1,4]oxazino[3′,4′:6,7][1]oxa[4,7,10,14]tetraazacycloheptadecino[17,16-c]quinoline-9-carboxamide], for which the concentration for a half-maximal effect (EC50) turned out to be 557 nM and the Emax stood at 129%.

With `COCCN1CCN2C(=O)[C@H](CC(C)C)N(C)C(=O)C[C@@H](C(=O)NCCc3cccc(OC(F)F)c3)NC(=O)c3c(cnc4ccccc34)OC[C@@H](Cc3ccccc3)NC(=O)[C@H]2C1` [Example 414, (9S,13S,19aR,22R)-22-benzyl-N-(3-(difluoromethoxy)phenethyl)-13-isobutyl-18-(2-methoxyethyl)-12-methyl-7,11,14,20-tetraoxo-7,8,9,10,11,12,13,14,17,18,19,19a,20,21,22,23-hexadecahydro-16H-pyrazino[2′,1′:6,7][1]oxa[4,7,10,14]tetraazacycloheptadecino[17,16-c]quinoline-9-carboxamide], the concentration for a half-maximal effect (EC50) came out at 372 nM and the maximal effect (Emax) was 251%.

Turning to `COCCN1CCN2C(=O)[C@H](CC(C)C)N(C)C(=O)C[C@@H](C(=O)NCCc3nc4c(s3)CCC4)NC(=O)c3c(cnc4ccccc34)OC[C@@H](Cc3ccccc3)NC(=O)[C@H]2C1` [Example 415, (9S,13S,19aR,22R)-22-benzyl-N-(2-(5,6-dihydro-4H-cyclopenta[d]thiazol-2-yl)ethyl)-13-isobutyl-18-(2-methoxyethyl)-12-methyl-7,11,14,20-tetraoxo-7,8,9,10,11,12,13,14,17,18,19,19a,20,21,22,23-hexadecahydro-16H-pyrazino[2′,1′:6,7][1]oxa[4,7,10,14]tetraazacycloheptadecino[17,16-c]quinoline-9-carboxamide], the half-maximal effective concentration (EC50) was 840 nM and the maximal response (Emax) was 274%.

`COc1cccc(CCNC(=O)[C@@H]2CC(=O)N(C)[C@@H](CC(C)C)C(=O)N3CCN(CCO)C[C@@H]3C(=O)N[C@H](Cc3ccccc3)COc3ccc4ccccc4c3C(=O)N2)c1` [Example 416, (4aR,7R,18S,22S)-7-benzyl-3-(2-hydroxyethyl)-22-isobutyl-N-(3-methoxyphenethyl)-21-methyl-5,16,20,23-tetraoxo-2,3,4,4a,5,6,7,8,16,17,18,19,20,21,22,23-hexadecahydro-1H-naphtho[1,2-p]pyrazino[2,1-f][1]oxa[4,7,10,14]tetraazacycloheptadecine-18-carboxamide]: the EC50 was found to be 526 nM and the Emax came to 345%.

In the case of `COc1cccc(CCNC(=O)[C@@H]2CC(=O)N(C)[C@@H](CC(C)C)C(=O)N3CCN(C4CC4)C[C@@H]3C(=O)N[C@H](Cc3ccccc3)COc3ccc4nc(C)oc4c3C(=O)N2)c1` [Example 417, (8S,12S,18aR,21R)-21-benzyl-17-cyclopropyl-12-isobutyl-N-(3-methoxyphenethyl)-4,11-dimethyl-6,10,13,19-tetraoxo-6,7,8,9,10,11,12,13,16,17,18,18a,19,20,21,22-hexadecahydro-15H-oxazolo[4′,5′:5,6]benzo[1,2-p]pyrazino[2,1-f][1]oxa[4,7,10,14]tetraazacycloheptadecine-8-carboxamide], the EC50 stood at 437 nM and the Emax worked out at 343%.

Take `CCOc1cccc(CCNC(=O)[C@@H]2CC(=O)N(C)[C@@H](CC(C)C)C(=O)N3CCN(C4CC4)C[C@@H]3C(=O)N[C@H](Cc3ccccc3)COc3ccc4nc(C)oc4c3C(=O)N2)c1` [Example 418, (8S,12S,18aR,21R)-21-benzyl-17-cyclopropyl-N-(3-ethoxyphenethyl)-12-isobutyl-4,11-dimethyl-6,10,13,19-tetraoxo-6,7,8,9,10,11,12,13,16,17,18,18a,19,20,21,22-hexadecahydro-15H-oxazolo[4′,5′:5,6]benzo[1,2-p]pyrazino[2,1-f][1]oxa[4,7,10,14]tetraazacycloheptadecine-8-carboxamide]: the 50% effective concentration (EC50) was found to be 276 nM and the Emax is 259%.
